Key:
male C57BL/6 mice [1] = test: Fertility of male mice on a metabolic syndrome model; type: in vivo, mouse
Protocol: (§1) Metabolic disorders were simulated as follows: on Day 2 after birth, male C57Bl/6 mice were injected with streptozotocin at a dose of 200 mg/kg, once, subcutaneously in the withers area, and the volume of the injected solution was 30 μl. From week 4 after birth, the animals were transferred to a high-fat diet. For this purpose, the used feed was enriched with heavy saturated fats (30% fat) (Siff EF R/M with 30% Fat Cat No. E15116-34, Germany). The animals were held on the high-fat diet for 42 days (from Day 28 to Day 70 of the study). Treamid was administered at a dose of 10 mg/kg intragastrically once daily, every day from Day 49 to Day 80 of the experiment. The control animals received the equivalent volume of a solvent, instead of the test compound.
The fertility of the males was estimated as follows: intact females were placed to the males of the experimental groups in a ratio of 1:2 for a period of from Day 70 to Day 80 of the study. During this period, the males of the experimental group continued to be administered intragastrically Treamid once daily at a dose of 10 mg/kg.
At the end of the mating period, on Day 80 of the study, the males were euthanized in a CO2 chamber. The blood of the animals was taken and analyzed for serum levels of free testosterone by enzyme immunoassay. Euthanasia was performed in the morning hours from 9:30 to 11:00.
The females were sacrificed in the CO2 chamber on Day 18 of pregnancy. The fetuses in the uterus were examined. The fertility index (FI) was calculated to assess fertility: FI=number of fertilized females/number of females placed with males×100%.

male C57BL/6 mice [2] = test: Metabolic syndrome model in mice (streptozotocin + high-fat diet): pancreas, glucose, testosterone; type: in vivo, mouse
Protocol: as §1, with “mg/kg” for “mg/kg,”, “diet high in fat.” for “high-fat diet.”, “duration of feeding with a” for “animals were held on the”, “feed was” for “diet for”, “experiment). […]” for “study). Treamid was administered at a dose of 10 mg/kg intragastrically once daily, every day from Day 49 to Day 80 of the experiment.”, “solvent (2% starch mucus),” for “solvent,”
On Days 28, 35, 42, 49, 56, 63, and 70 of the study, blood glucose was determined. The blood glucose level was determined with a glucometer meter (Accu-Chek Performs Nanu (“Roche Diagnostes GmbH”, Germany). Blood glucose was measured in animals after 16-hour feed deprivation; all subsequent measurements of the glucose level were also performed after 16-hour feed deprivation.
On Day 70 day, animals were euthanized in a CO2 chamber. Then, the serum free testosterone level was studied, and the morphological examination of the pancreas was performed.
The level of free testosterone in the serum was evaluated by enzyme immunoassay according to the protocol of manufacturer's test system.
For morphological study, a part of the pancreas adjacent to the spleen was fixed in 10% formalin and poured into paraffin according to the standard method.
Deparaffined sections of the gland were stained with hematoxylin and eosin. On the sections, the area of 10 serial islets of Langerhans was determined by graphic computer analysis, and the total number of cells and the number of pyknotized cells were counted therein. Then, the number of cells per unit islet area and the percentage of the pyknotized cells were calculated. Inflammatory cells (neutrophils, lymphocytes, macrophages) in the pancreatic tissue and their composition were studied by staining of the histological sections with hematoxylin-eosin.

male Wistar rats = test: Chronic abacterial prostatitis (CAP) model, prostate weight and morphometry; type: in vivo, rat
Protocol: This is manifested in a decrease in the severity of the morphological changes typical in these diseases. CAP was simulated by suturing the ventral lobe of the gland with a silk thread, and BPH was simulated by the administration of Sulpiride. The reference drug was Prostamol Uno.
Treamid were administered intragastrically to animals with CAP at a dose of 0.5 mg/kg for 15 days.
Experiments were performed on 40 male Wistar rats (3 months of age). To simulate chronic abacterial prostatitis, the ventral lobe of the prostate was sutured with a silk thread (under anesthesia). The model of benign prostatic hyperplasia (BPH) was simulated in rats by inducing hyperprolactinaemia, for which male rats were intraperitoneally injected with Sulpiride at a dose of 40 mg/kg every day for 2 months (Eglonil, Sanofi Winthrop Industry, France).
One month after the surgery, the animals of the experimental group were intraperitoneally administered Treamid at a dose of 0.5 mg/kg once daily for 15 days. At the end of the administration course, the animals were weighed and euthanized in a CO2 chamber. The ventral lobe of the gland was then dissected, weighed, and its volume was measured, followed by the calculation of a weight coefficient, and subjected to morphological analysis. For this purpose, the prostate was fixed in formalin and poured into paraffin. Paraffin sections of a thickness of 5 μm were stained with hematoxylin-eosin according to Van Gieson on the connective tissue, to calculate the relative area of the epithelium. Further, the severity of atrophic processes and developing sclerosis was qualitatively assessed. The assessment was carried out on standard area of the gland section by using a computer graphic analysis (micrographs of 10 serial visual fields performed by an AxioCam Erc5s camera mounted on an AxioLab A1 microscope (×10 lens, ×10 eyepiece), with an image transfer software of “AxioVision LE”, Carl Zeiss). The area occupied by secretory sites, collagen fibers of connective tissue septa was determined. The effectiveness of the drug was estimated by the following criteria: lower intensity of morphological symptoms of chronic abacterial prostatitis (atrophy and sclerosis): the area occupied by secretory sections, collagen fibers of connective tissue septa.

[3] = Day 70, Treamid (1 mg/kg), n = 8
[4] = Treamid 0.5 mg/kg 15 days, Prostamol Uno 50 mg/kg
[5] = anterior part of the prostate gland, Treamid 0.5 mg/kg, Prostamol Uno 50 mg/kg

SMILES: O=C(CCCC(=O)NCCc1ncc[nH]1)NCCc1ncc[nH]1 [Treamid]
- increase of free testosterone in the blood serum in comparison with intact animals (male C57BL/6 mice [1]; 10 mg/kg, Day 80): 16%
- increase of free testosterone in the blood serum in comparison with the pathological control (male C57BL/6 mice [1]; 10 mg/kg, Day 80): 2 times
- Free testosterone in the blood serum (pg/ml) (male C57BL/6 mice [1]; Day 80, Treamid 10 mg/kg intragastrically Day 49-80): 3.46 ± 1.87*• pg/ml
- fertility index relative to untreated metabolic disorders (pathological control) (male C57BL/6 mice [1]; Treamid 10 mg/kg Day 49-80): 1.8 times
- Fertility index, % (male C57BL/6 mice [1]; mating Day 70-80, Treamid 10 mg/kg Day 49-80): 55*• %
- Serum glucose concentration (male C57BL/6 mice [2]; Day 28 (before Treamid, given Day 49-70)): 5.36 ± 1.28 mmol/L
- Serum glucose concentration (male C57BL/6 mice [2]; Day 35 (before Treamid, given Day 49-70)): 4.21 ± 1.81 mmol/L
- Serum glucose concentration (male C57BL/6 mice [2]; Day 42 (before Treamid, given Day 49-70)): 12.75 ± 2.6 mmol/L
- Serum glucose concentration (male C57BL/6 mice [2]; Day 49, Treamid 10 mg/kg intragastrically Day 49-70): 13.59 ± 2.41 mmol/L
- Serum glucose concentration (mmol/L) (male C57BL/6 mice [2]; Day 56, Treamid 10 mg/kg intragastrically Day 49-70): 12.91 ± 4.48*• mmol/L
- Serum glucose concentration (mmol/L) (male C57BL/6 mice [2]; Day 63, Treamid 10 mg/kg intragastrically Day 49-70): 14.47 ± 3.21*• mmol/L
- Free testosterone (pg/ml), serum (male C57BL/6 mice [2]; Day 70, Treamid 10 mg/kg): 3.70 ± 0.46 pg/mL
- Serum glucose concentration (male C57BL/6 mice [2]; Day 70, Treamid 10 mg/kg intragastrically Day 49-70): 21.82 ± 5.83 mmol/L
- % of pyknotized cells in the islet of Langerhans (male C57BL/6 mice [2]; [3]): 0.99 ± 0.06• %
- Area of an islet (pixel) (male C57BL/6 mice [2]; [3]): 743399 ± 21134*• pixel
- The number of islets in 30 vision fields (male C57BL/6 mice [2]; [3]): 7.4 ± 0.37•
- increase in the area of the acinar epithelium (male Wistar rats; Treamid 0.5 mg/kg): 22%
- Volume of the anterior lobe of the prostate gland, cm^3 (male Wistar rats; [4]): 0.90 ± 0.20 cm^3
- Weight coefficient of the anterior lobe of the prostate gland (male Wistar rats; [4]): 1.97 ± 0.47 mg/g
- Weight of the anterior lobe of the prostate gland (male Wistar rats; [4]): 976.00 ± 226.62 mg
- Area of collagen fibers (male Wistar rats; [5]): 2.64 ± 0.12 %
- Area of the acinar epithelium (male Wistar rats; [5]): 26.33 ± 2.63%
